Source: patent US7962204B2 (priority 2001, dated 2011)

System: behaviorally-diagnosed psychiatric conditions (DSM categories)
Set-up: species or system human
Conditions: in vivo
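Throughout, for use code of agent in 301.7 Antisocial Personality Disorder: N marks novel agent found effective in subject subgroups.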
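Throughout, for use code of agent in 301.83 Borderline Personality Disorder: N marks novel agent found effective in subject subgroups.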
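Throughout, for use in 307.50 Eating Disorder NOS: N marks novel agent found effective in subject subgroups.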
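Throughout, for use in 307.51 Bulimia Nervosa: N marks novel agent found effective in subject subgroups.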
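Throughout, for use in 313.81 Oppositional Defiant Disorder: N marks novel agent found effective in subject subgroups.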

N[C@@H](Cc1ccccc1)C(=O)O [PHENYLALANINE, reference compound]
N: agent found effective in 299.00 Autistic Disorder | agent found effective in 300.00 Anxiety Disorder NOS | agent found effective in 300.02 Generalized Anxiety Disorder | agent found effective in 300.22 Agoraphobia Without History of Panic Disorder | agent found effective in 300.23 Social Phobia | agent found effective in 300.29 Specific Phobia | agent found effective in 300.3 Obsessive-Compulsive Disorder | agent found effective in 309.81 Posttraumatic Stress Disorder | agent found effective in Panic Disorder | use in Dementia of the Alzheimer's Type

CC(NC(C)(C)C)C(=O)c1cccc(Cl)c1 (stereo not drawn) [BUPROPRION (REGULAR TABS)]
N: use code of agent in 301.20 Schizoid Personality Disorder | use code of agent in 301.22 Schizotypal Personality Disorder | use code of agent in 301.4 Obsessive-Compulsive Personality Disorder | use code of agent in 301.50 Histrionic Personality Disorder | use code of agent in 301.6 Dependent Personality Disorder | use code of agent in 301.7 Antisocial Personality Disorder | use code of agent in 301.82 Avoidant Personality Disorder | use code of agent in 301.83 Borderline Personality Disorder | use code of agent in 302.71 Hypoactive Sexual Desire Disorder | use code of agent in 307.42 Primary Insomnia | use code of agent in 311 Depressive Disorder NOS | use code of agent in 316 Psychological Factors Affecting Medical Condition, Atypical Asthma | use code of agent in 316 Psychological Factors Affecting Medical Condition, Neurodermatitis | use code of agent in Bipolar I Disorder | use in 294.8 Amnestic Disorder | use in 294.9 Cognitive Disorder NOS | use in 296.89 Bipolar II Disorder | use in 299.80 Pervasive Developmental Disorder NOS | use in 300.00 Anxiety Disorder NOS | use in 300.02 Generalized Anxiety Disorder | use in 300.22 Agoraphobia Without History of Panic Disorder | use in 300.23 Social Phobia | use in 300.29 Specific Phobia | use in 300.3 Obsessive-Compulsive Disorder | use in 301.13 Cyclothymic Disorder | use in 307.1 Anorexia Nervosa | use in 307.50 Eating Disorder NOS | use in 307.51 Bulimia Nervosa | use in 307.9 Communication Disorder NOS | use in 309.21 Separation Anxiety Disorder | use in 309.81 Posttraumatic Stress Disorder | use in 312.30 Impulse-Control Disorder NOS | use in 312.31 Pathological Gambling | use in 312.34 Intermittent Explosive Disorder | use in 312.39 Trichotillomania | use in 312.8 Conduct Disorder | use in 313.81 Oppositional Defiant Disorder | use in 315.9 Learning Disorder NOS | use in Attention-Deficit/Hyperactivity Disorder | use in Panic Disorder | use of the agent in the diagnostic category (C = common use; N = novel use from rEEG features)

N=C(N)NC(=O)Cc1c(Cl)cccc1Cl [[…]]
N: use code of agent in 316 Psychological Factors Affecting Medical Condition, Hypertensive Disorder NOS

COCCc1ccc(OCC(O)CNC(C)C)cc1 (stereo not drawn) [METOPOLOL]
N: use code of agent in 296.89 Bipolar II Disorder | use code of agent in 296.90 Mood Disorder NOS | use code of agent in 301.13 Cyclothymic Disorder | use code of agent in 301.20 Schizoid Personality Disorder | use code of agent in 301.22 Schizotypal Personality Disorder | use code of agent in 301.4 Obsessive-Compulsive Personality Disorder | use code of agent in 301.50 Histrionic Personality Disorder | use code of agent in 301.6 Dependent Personality Disorder | use code of agent in 301.7 Antisocial Personality Disorder | use code of agent in 301.82 Avoidant Personality Disorder | use code of agent in 301.83 Borderline Personality Disorder | use code of agent in 307.42 Primary Insomnia | use code of agent in 311 Depressive Disorder NOS | use code of agent in 312.34 Intermittent Explosive Disorder | use code of agent in 312.39 Trichotillomania | use code of agent in 316 Psychological Factors Affecting Medical Condition, Hypertensive Disorder NOS | use code of agent in 316 Psychological Factors Affecting Medical Condition, Irritable Bowel Syndrome | use code of agent in 316 Psychological Factors Affecting Medical Condition, Neurodermatitis | use code of agent in Bipolar I Disorder | use code of agent in Major Depressive Disorder, Recurrent | use code of agent in Major Depressive Disorder, Single Episode | use in 294.9 Cognitive Disorder NOS | use in 299.00 Autistic Disorder | use in 299.80 Pervasive Developmental Disorder NOS | use in 300.00 Anxiety Disorder NOS | use in 300.02 Generalized Anxiety Disorder | use in 300.22 Agoraphobia Without History of Panic Disorder | use in 300.23 Social Phobia | use in 300.3 Obsessive-Compulsive Disorder | use in 307.1 Anorexia Nervosa | use in 307.20 Tic Disorder NOS | use in 307.22 Chronic Motor or Vocal Tic Disorder | use in 307.23 Tourette's Disorder | use in 307.50 Eating Disorder NOS | use in 307.51 Bulimia Nervosa | use in 309.21 Separation Anxiety Disorder | use in 309.81 Posttraumatic Stress Disorder | use in 312.30 Impulse-Control Disorder NOS | use in 312.31 Pathological Gambling | use in 312.8 Conduct Disorder | use in 313.81 Oppositional Defiant Disorder | use in 315.9 Learning Disorder NOS | use in Attention-Deficit/Hyperactivity Disorder | use in Panic Disorder | use of the agent in the diagnostic category (C = common use; N = novel use from rEEG features)

NNCCc1ccccc1 [PHENALZINE]
N: use code of agent in 301.20 Schizoid Personality Disorder | use code of agent in 301.4 Obsessive-Compulsive Personality Disorder | use code of agent in 301.50 Histrionic Personality Disorder | use code of agent in 301.6 Dependent Personality Disorder | use code of agent in 301.7 Antisocial Personality Disorder | use code of agent in 301.82 Avoidant Personality Disorder | use code of agent in 301.83 Borderline Personality Disorder | use code of agent in 302.71 Hypoactive Sexual Desire Disorder | use code of agent in 307.42 Primary Insomnia | use code of agent in 311 Depressive Disorder NOS | use code of agent in 316 Psychological Factors Affecting Medical Condition, Atypical Asthma | use code of agent in 316 Psychological Factors Affecting Medical Condition, Neurodermatitis | use code of agent in Bipolar I Disorder | use code of agent in Major Depressive Disorder, Recurrent | use code of agent in Major Depressive Disorder, Single Episode | use in 294.9 Cognitive Disorder NOS | use in 296.89 Bipolar II Disorder | use in 296.90 Mood Disorder NOS | use in 299.80 Pervasive Developmental Disorder NOS | use in 300.00 Anxiety Disorder NOS | use in 300.22 Agoraphobia Without History of Panic Disorder | use in 300.23 Social Phobia | use in 300.29 Specific Phobia | use in 300.3 Obsessive-Compulsive Disorder | use in 300.4 Dysthymic Disorder | use in 301.13 Cyclothymic Disorder | use in 307.1 Anorexia Nervosa | use in 307.50 Eating Disorder NOS | use in 307.51 Bulimia Nervosa | use in 309.21 Separation Anxiety Disorder | use in 309.81 Posttraumatic Stress Disorder | use in 312.31 Pathological Gambling | use in 312.34 Intermittent Explosive Disorder | use in 312.39 Trichotillomania | use in 312.8 Conduct Disorder | use in 313.81 Oppositional Defiant Disorder | use in 315.9 Learning Disorder NOS | use in Attention-Deficit/Hyperactivity Disorder | use in Panic Disorder | use of the agent in the diagnostic category (C = common use; N = novel use from rEEG features)

CN[C@@H](C)Cc1ccccc1 [METHAMPHETAMINE]
N: use code of agent in 294.9 Cognitive Disorder NOS | use code of agent in 296.90 Mood Disorder NOS | use code of agent in 300.4 Dysthymic Disorder | use code of agent in 301.13 Cyclothymic Disorder | use code of agent in 307.1 Anorexia Nervosa | use code of agent in 307.51 Bulimia Nervosa | use code of agent in 312.30 Impulse-Control Disorder NOS | use code of agent in 312.31 Pathological Gambling | use code of agent in 312.39 Trichotillomania | use code of agent in 312.8 Conduct Disorder | use code of agent in 313.81 Oppositional Defiant Disorder | use code of agent in 315.9 Learning Disorder NOS

CC(C)CC(N(C)C)C1(c2ccc(Cl)cc2)CCC1 (stereo not drawn) [SILBTRMIN]
N: use code of agent in 312.34 Intermittent Explosive Disorder | use in 307.22 Chronic Motor or Vocal Tic Disorder | use of the agent in the diagnostic category (C = common use; N = novel use from rEEG features)

COC(=O)C(c1ccccc1)C1CCCCN1 (stereo not drawn) [METHYLPHENIDATE]
N: use code of agent in 294.9 Cognitive Disorder NOS | use code of agent in 296.90 Mood Disorder NOS | use code of agent in 300.4 Dysthymic Disorder | use code of agent in 301.13 Cyclothymic Disorder | use code of agent in 307.1 Anorexia Nervosa | use code of agent in 307.50 Eating Disorder NOS | use code of agent in 307.51 Bulimia Nervosa | use code of agent in 312.30 Impulse-Control Disorder NOS | use code of agent in 312.31 Pathological Gambling | use code of agent in 312.39 Trichotillomania | use code of agent in 312.8 Conduct Disorder | use code of agent in 313.81 Oppositional Defiant Disorder | use code of agent in 315.9 Learning Disorder NOS

N[C@@H]1C[C@H]1c1ccccc1 [PARNATE, reference compound]
N: use code of agent in 301.20 Schizoid Personality Disorder | use code of agent in 301.4 Obsessive-Compulsive Personality Disorder | use code of agent in 301.50 Histrionic Personality Disorder | use code of agent in 301.6 Dependent Personality Disorder | use code of agent in 301.7 Antisocial Personality Disorder | use code of agent in 301.82 Avoidant Personality Disorder | use code of agent in 301.83 Borderline Personality Disorder | use code of agent in 302.71 Hypoactive Sexual Desire Disorder | use code of agent in 307.42 Primary Insomnia | use code of agent in 311 Depressive Disorder NOS | use code of agent in 316 Psychological Factors Affecting Medical Condition, Atypical Asthma | use code of agent in 316 Psychological Factors Affecting Medical Condition, Neurodermatitis | use code of agent in Bipolar I Disorder | use code of agent in Major Depressive Disorder, Recurrent | use code of agent in Major Depressive Disorder, Single Episode | use in 294.9 Cognitive Disorder NOS | use in 296.89 Bipolar II Disorder | use in 296.90 Mood Disorder NOS | use in 299.80 Pervasive Developmental Disorder NOS | use in 300.00 Anxiety Disorder NOS | use in 300.02 Generalized Anxiety Disorder | use in 300.22 Agoraphobia Without History of Panic Disorder | use in 300.23 Social Phobia | use in 300.29 Specific Phobia | use in 300.3 Obsessive-Compulsive Disorder | use in 300.4 Dysthymic Disorder | use in 301.13 Cyclothymic Disorder | use in 307.1 Anorexia Nervosa | use in 307.50 Eating Disorder NOS | use in 307.51 Bulimia Nervosa | use in 309.21 Separation Anxiety Disorder | use in 309.81 Posttraumatic Stress Disorder | use in 312.30 Impulse-Control Disorder NOS | use in 312.31 Pathological Gambling | use in 312.34 Intermittent Explosive Disorder | use in 312.39 Trichotillomania | use in 312.8 Conduct Disorder | use in 313.81 Oppositional Defiant Disorder | use in 315.9 Learning Disorder NOS | use in Attention-Deficit/Hyperactivity Disorder | use in Panic Disorder | use of the agent in the diagnostic category (C = common use; N = novel use from rEEG features)

Nc1nnc(-c2cccc(Cl)c2Cl)c(N)n1 [LAMOTRIGINE]
N: use in Dementia of the Alzheimer's Type

Cc1nc2n(c(=O)c1CCN1CCC(c3noc4cc(F)ccc34)CC1)CCCC2 [RISPERDONE]
N: use in 300.22 Agoraphobia Without History of Panic Disorder

Clc1cccc(Cl)c1N=C1NCCN1 [CLONIDINE]
N: use code of agent in 316 Psychological Factors Affecting Medical Condition, Hypertensive Disorder NOS
